Assay results reported in PubChem BioAssay (NCI).
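48-hour exposure; five concentrations; linearly interpolated endpoints. TGI marks complete inhibition of growth.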 Where a SMILES comes first, the peptide text is derived from it. The star is where a group is joined. Boc = CC(C)(C)OC(=O)*; OBn = c1ccc(CO*)cc1

Key:
Experiment in all cases: NCI tumour cell line growth inhibition, 48 h
UACC-257 melanoma = system: UACC-257 melanoma
TK-10 renal = system: TK-10 renal
HL-60(TB) leukemia = system: HL-60(TB) leukemia
KM12 colon = system: KM12 colon
LOX IMVI melanoma = system: LOX IMVI melanoma
786-0 renal = system: 786-0 renal
SK-MEL-2 melanoma = system: SK-MEL-2 melanoma
HCT-15 colon = system: HCT-15 colon
PC-3 prostate = system: PC-3 prostate
SR leukemia = system: SR leukemia
MDA-N = system: MDA-N
SW-620 colon = system: SW-620 colon
K-562 leukemia = system: K-562 leukemia
T-47D breast = system: T-47D breast
OVCAR-3 ovarian = system: OVCAR-3 ovarian
RXF 393 renal = system: RXF 393 renal
IGROV1 ovarian = system: IGROV1 ovarian
SNB-75 CNS = system: SNB-75 CNS
ACHN renal = system: ACHN renal
HCT-116 colon = system: HCT-116 colon
CCRF-CEM leukemia = system: CCRF-CEM leukemia
MDA-MB-435 = system: MDA-MB-435
A498 renal = system: A498 renal
MCF7 breast = system: MCF7 breast
OVCAR-8 ovarian = system: OVCAR-8 ovarian
A549 NSCLC = system: A549 NSCLC
HCC-2998 colon = system: HCC-2998 colon
NCI-H460 lung = system: NCI-H460 lung
SK-MEL-28 melanoma = system: SK-MEL-28 melanoma
SF-268 CNS = system: SF-268 CNS
UO-31 renal = system: UO-31 renal
HS 578T breast = system: HS 578T breast
DU-145 prostate = system: DU-145 prostate
NCI-H522 lung = system: NCI-H522 lung
SF-295 CNS = system: SF-295 CNS
HOP-62 NSCLC = system: HOP-62 NSCLC
CAKI-1 renal = system: CAKI-1 renal
SF-539 CNS = system: SF-539 CNS
OVCAR-5 ovarian = system: OVCAR-5 ovarian
MOLT-4 leukemia = system: MOLT-4 leukemia
NCI-H23 lung = system: NCI-H23 lung
SK-MEL-5 melanoma = system: SK-MEL-5 melanoma
UACC-62 melanoma = system: UACC-62 melanoma
M14 melanoma = system: M14 melanoma
HOP-92 NSCLC = system: HOP-92 NSCLC
EKVX NSCLC = system: EKVX NSCLC
SN12C renal = system: SN12C renal
COLO 205 colon = system: COLO 205 colon
MDA-MB-231 breast = system: MDA-MB-231 breast
U251 CNS = system: U251 CNS
SK-OV-3 ovarian = system: SK-OV-3 ovarian
BT-549 breast = system: BT-549 breast
SNB-19 CNS = system: SNB-19 CNS
RPMI-8226 leukemia = system: RPMI-8226 leukemia
NCI/ADR-RES ovarian = system: NCI/ADR-RES ovarian
HT29 colon = system: HT29 colon
MALME-3M melanoma = system: MALME-3M melanoma
NCI-H226 lung = system: NCI-H226 lung

Oc1c2c(c(O)c3ccccc13)C1(N=N2)c2ccccc2Oc2ccccc21
TGI (UACC-257 melanoma): 19.1 µM
TGI (TK-10 renal): 23 µM
TGI (HL-60(TB) leukemia): 62.1 µM
TGI (KM12 colon): 38.6 µM
TGI (LOX IMVI melanoma): 7.31 µM
TGI (786-0 renal): 11.5 µM
TGI (SK-MEL-2 melanoma): 27.4 µM
TGI (HCT-15 colon): 9.15 µM
TGI (PC-3 prostate): 28.5 µM
TGI (SR leukemia): > 100 µM
TGI (MDA-N): 21.8 µM
TGI (SW-620 colon): 18.1 µM
TGI (K-562 leukemia): > 100 µM
TGI (T-47D breast): 47.8 µM
TGI (OVCAR-3 ovarian): 10.8 µM
TGI (RXF 393 renal): 4.65 µM
TGI (IGROV1 ovarian): 10.2 µM
TGI (SNB-75 CNS): 33.5 µM
TGI (ACHN renal): 16 µM
TGI (HCT-116 colon): 17.7 µM
TGI (CCRF-CEM leukemia): 29.9 µM
TGI (MDA-MB-435): 17.9 µM
TGI (A498 renal): 35.7 µM
TGI (MCF7 breast): 13.6 µM
TGI (OVCAR-8 ovarian): 11.1 µM
TGI (A549 NSCLC): 66.5 µM
TGI (HCC-2998 colon): 38.7 µM
TGI (NCI-H460 lung): 46.3 µM
TGI (SK-MEL-28 melanoma): 28.8 µM
TGI (SF-268 CNS): 25.5 µM
TGI (UO-31 renal): 23.3 µM
TGI (HS 578T breast): 41.5 µM
TGI (DU-145 prostate): 37 µM
TGI (NCI-H522 lung): 5.13 µM
TGI (SF-295 CNS): 33.3 µM
TGI (HOP-62 NSCLC): 38.5 µM
TGI (CAKI-1 renal): 26.5 µM
TGI (SF-539 CNS): 20.2 µM
TGI (OVCAR-5 ovarian): 26.5 µM
TGI (MOLT-4 leukemia): > 100 µM
TGI (NCI-H23 lung): > 100 µM
TGI (SK-MEL-5 melanoma): 27.2 µM
TGI (UACC-62 melanoma): 25.1 µM
TGI (M14 melanoma): 26.1 µM
TGI (HOP-92 NSCLC): 31 µM
TGI (EKVX NSCLC): 28.3 µM
TGI (SN12C renal): 27 µM
TGI (COLO 205 colon): 28 µM
TGI (MDA-MB-231 breast): 32.4 µM
TGI (U251 CNS): 16.4 µM
TGI (SK-OV-3 ovarian): 31.4 µM
TGI (BT-549 breast): 23.5 µM
TGI (SNB-19 CNS): 32.4 µM
TGI (RPMI-8226 leukemia): 14.7 µM
TGI (NCI/ADR-RES ovarian): 33.4 µM
TGI (HT29 colon): 30.2 µM
TGI (MALME-3M melanoma): 9.28 µM

CC(C)CC(NC(=O)C(Cc1ccccc1)NC(=O)C(Cc1ccccc1)NC(=O)OC(C)(C)C)C(=O)OCc1ccccc1 (stereo not drawn) (Boc-Phe-Phe-Leu-OBn; configuration not given here)
TGI (UACC-257 melanoma): > 100 µM
TGI (TK-10 renal): > 100 µM
TGI (HL-60(TB) leukemia): > 100 µM
TGI (KM12 colon): > 100 µM
TGI (LOX IMVI melanoma): > 100 µM
TGI (786-0 renal): > 100 µM
TGI (SK-MEL-2 melanoma): > 100 µM
TGI (HCT-15 colon): > 100 µM
TGI (PC-3 prostate): > 100 µM
TGI (SR leukemia): > 100 µM
TGI (MDA-N): > 100 µM
TGI (SW-620 colon): > 100 µM
TGI (K-562 leukemia): > 100 µM
TGI (T-47D breast): > 100 µM
TGI (OVCAR-3 ovarian): > 100 µM
TGI (NCI-H226 lung): > 100 µM
TGI (RXF 393 renal): > 100 µM
TGI (IGROV1 ovarian): > 100 µM
TGI (SNB-75 CNS): > 100 µM
TGI (HCT-116 colon): > 100 µM
TGI (CCRF-CEM leukemia): > 100 µM
TGI (MDA-MB-435): > 100 µM
TGI (A498 renal): > 100 µM
TGI (MCF7 breast): > 100 µM
TGI (OVCAR-8 ovarian): > 100 µM
TGI (A549 NSCLC): > 100 µM
TGI (SK-MEL-28 melanoma): > 100 µM
TGI (SF-268 CNS): > 100 µM
TGI (UO-31 renal): > 100 µM
TGI (HS 578T breast): > 100 µM
TGI (DU-145 prostate): > 100 µM
TGI (NCI-H522 lung): > 100 µM
TGI (SF-295 CNS): > 100 µM
TGI (HOP-62 NSCLC): > 100 µM
TGI (CAKI-1 renal): > 100 µM
TGI (SF-539 CNS): > 100 µM
TGI (OVCAR-5 ovarian): > 100 µM
TGI (MOLT-4 leukemia): > 100 µM
TGI (NCI-H23 lung): > 100 µM
TGI (SK-MEL-5 melanoma): > 100 µM
TGI (UACC-62 melanoma): > 100 µM
TGI (M14 melanoma): > 100 µM
TGI (HOP-92 NSCLC): > 100 µM
TGI (EKVX NSCLC): > 100 µM
TGI (SN12C renal): > 100 µM
TGI (COLO 205 colon): > 100 µM
TGI (MDA-MB-231 breast): > 100 µM
TGI (U251 CNS): > 100 µM
TGI (SK-OV-3 ovarian): > 100 µM
TGI (BT-549 breast): > 100 µM
TGI (SNB-19 CNS): > 100 µM
TGI (RPMI-8226 leukemia): > 100 µM
TGI (NCI/ADR-RES ovarian): > 100 µM
TGI (HT29 colon): > 100 µM
TGI (MALME-3M melanoma): > 100 µM
